Calls of active or inactive are those of the source. No rule for the calls is given here.
Biological target: Activin receptor type-1 (Homo sapiens) (UniProt Q04771)
Experiment: ACVR1 enzymatic activity inhibition – biochemical, secondary in vitro, SAR follow-up (AID 652276)
Settings: in vitro ALK2 kinase assay; for remaining activity (low = inhibition): at 100 µM (top of the series)

Chain of Activin receptor type-1 (Homo sapiens) (Q04771 whole entry, looked up): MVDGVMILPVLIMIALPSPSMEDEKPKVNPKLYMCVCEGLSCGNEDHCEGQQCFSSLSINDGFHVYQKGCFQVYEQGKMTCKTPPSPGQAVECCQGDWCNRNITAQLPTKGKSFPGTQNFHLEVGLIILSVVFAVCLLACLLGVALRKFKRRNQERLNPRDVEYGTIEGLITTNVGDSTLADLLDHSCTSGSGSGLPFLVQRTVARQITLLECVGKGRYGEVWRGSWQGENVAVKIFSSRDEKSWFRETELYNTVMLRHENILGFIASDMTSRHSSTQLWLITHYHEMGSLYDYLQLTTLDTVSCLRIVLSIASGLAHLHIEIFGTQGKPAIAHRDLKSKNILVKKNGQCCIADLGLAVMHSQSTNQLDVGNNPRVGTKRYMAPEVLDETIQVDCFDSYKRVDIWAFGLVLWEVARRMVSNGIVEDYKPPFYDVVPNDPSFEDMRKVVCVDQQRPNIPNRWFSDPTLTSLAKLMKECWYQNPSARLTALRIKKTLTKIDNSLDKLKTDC

COc1ccc(-c2cnc3c(-c4cn[nH]c4)cnn3c2)cc1
IC50: 110 nM

COc1ccc(-c2cnc3c(-c4cccc5cccnc45)cnn3c2)cc1
remaining activity (low = inhibition): inactive

c1cc(N2CCNCC2)ccc1-c1cnc2c(-c3cn[nH]c3)cnn2c1
IC50: 43 nM

c1cc(N2CCOCC2)ccc1-c1cnc2c(-c3cn[nH]c3)cnn2c1
IC50: 53 nM

COc1ccc(-c2cnc3c(-c4ccnc5ncccc45)cnn3c2)cc1
IC50: 121 nM

COc1ccc(-c2cnc3c(-c4ccnc5ccccc45)cnn3c2)cc1
IC50: 33 nM

CN1CCN(c2ccc(-c3cnc4c(-c5ccnc6ccccc56)cnn4c3)cc2)CC1
remaining activity (low = inhibition): -0.03

c1ccc2c(-c3cnn4cc(-c5ccc(N6CCOCC6)cc5)cnc34)ccnc2c1
remaining activity (low = inhibition): 0.93

Source: PubChem BioAssay AID652276 (Vanderbilt Specialized Chemistry Center, 2013)
